Tests used:
factor Xa, human = factor Xa, human (Homo sapiens, UniProt P00742); assay: Inhibition of factor Xa; format: biochemical
Text: The inhibition of factor Xa by the compounds according to the invention and the measurement of the anticoagulant and antithrombotic activity can be determined by conventional in-vitro or in-vivo methods. A suitable method is described, for example, by J. Hauptmann et al. in Thrombosis and Haemostasis 1990, 63, 220-223.
The inhibition of factor Xa can be measured, for example, by the method of T. Hara et al. in Thromb. Haemostas. 1994, 71, 314-319.

TF/VIIa = TF/VIIa (Homo sapiens, UniProt P08709); assay: Inhibition of TF/VIIa; format: biochemical
Text: The inhibition of factor VIIa by the compounds according to the invention and the measurement of the anticoagulant and antithrombotic activity can be determined by conventional in-vitro or in-vivo methods. A conventional method for the measurement of the inhibition of factor VIIa is described, for example, by H. F. Ronning et al. in Thrombosis Research 1996, 84, 73-81.

factor Xa, human, sequence (P00742 235-488 limits assumed): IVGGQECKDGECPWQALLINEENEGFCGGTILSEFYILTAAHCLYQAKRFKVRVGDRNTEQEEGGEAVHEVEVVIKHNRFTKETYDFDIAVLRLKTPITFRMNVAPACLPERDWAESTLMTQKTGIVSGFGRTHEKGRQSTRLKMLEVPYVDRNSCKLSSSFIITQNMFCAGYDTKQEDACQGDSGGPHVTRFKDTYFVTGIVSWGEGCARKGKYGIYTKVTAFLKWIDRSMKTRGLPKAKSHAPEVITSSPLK
factor Xa, human, sequence (P00742 41-179 limits assumed): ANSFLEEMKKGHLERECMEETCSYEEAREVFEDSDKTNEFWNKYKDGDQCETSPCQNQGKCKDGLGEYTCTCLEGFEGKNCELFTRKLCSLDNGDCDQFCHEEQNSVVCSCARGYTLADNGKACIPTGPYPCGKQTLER
TF/VIIa, sequence (P08709 213-466 limits assumed): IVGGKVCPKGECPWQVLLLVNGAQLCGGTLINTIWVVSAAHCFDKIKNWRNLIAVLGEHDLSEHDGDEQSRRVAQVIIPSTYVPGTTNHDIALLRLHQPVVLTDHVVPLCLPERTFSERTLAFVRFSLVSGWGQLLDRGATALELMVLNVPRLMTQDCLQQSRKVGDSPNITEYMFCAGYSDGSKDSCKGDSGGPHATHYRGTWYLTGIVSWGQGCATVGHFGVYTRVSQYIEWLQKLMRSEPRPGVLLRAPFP
TF/VIIa, sequence (P08709 61-212 limits assumed): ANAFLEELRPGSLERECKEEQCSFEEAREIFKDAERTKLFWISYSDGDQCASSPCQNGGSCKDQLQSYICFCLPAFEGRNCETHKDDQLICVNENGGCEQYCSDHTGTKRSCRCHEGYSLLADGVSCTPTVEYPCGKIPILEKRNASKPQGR
TF/VIIa, sequence (P13726 33-295 partner): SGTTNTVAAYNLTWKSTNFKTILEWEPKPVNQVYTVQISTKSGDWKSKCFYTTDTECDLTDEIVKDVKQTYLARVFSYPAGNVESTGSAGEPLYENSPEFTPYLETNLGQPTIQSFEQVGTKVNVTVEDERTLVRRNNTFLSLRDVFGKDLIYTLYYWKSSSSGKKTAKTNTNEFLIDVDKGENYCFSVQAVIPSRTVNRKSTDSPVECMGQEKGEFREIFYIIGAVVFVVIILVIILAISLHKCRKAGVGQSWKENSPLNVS

Compound: CCCN(Cc1cccc(C(=N)N)c1)C(=O)Oc1ccc(-c2ccccc2S(C)(=O)=O)cc1 [Example 3.3, 2′-methylsulfonylbiphenyl-4-yl (3-amidinobenzyl)propylcarbamate]
- IC50 (factor Xa, human): 340 nM
- IC50 (TF/VIIa): 130 nM

Compound: CCCN(Cc1cccc(C(=N)N)c1)C(=O)Oc1ccc(-c2ccccc2S(N)(=O)=O)cc1 [Example 2.3, 2′-aminosulfonylbiphenyl-4-yl (3-amidinobenzyl)propylcarbamate]
- IC50 (factor Xa, human): 450 nM
- melting point: 119 to 120 °C
- IC50 (TF/VIIa): 350 nM
